Our source for the IC50 values is ChEMBL document CHEMBL5727968, “3-phenyl-pyrazole derivatives as modulators of the 5-HT2A serotonin receptor useful for the treatment of disorders related thereto” (2020).

As usually defined, the IC50 is the concentration at which inhibition is half-maximal.

The target in the assay is 5-hydroxytryptamine receptor 2A (Homo sapiens, UniProt P28223). The experiment in a line: [125I]DOI Radioligand Binding Assay: Radioligand binding assays for human 5-HT2A receptor was conducted using the 5-HT2 agonist [125I]DOI as radioligand. To define nonspecific binding, 10 μM DOI was used for all assays. For competitive binding studies, 0.5 nM [125I]DOI was used and compounds were assayed over a range of 0.01 nM to 10 μM. Assays were conducted in a total volume of 200 μl in 96-well Perkin Elmer GF/C filter plates in assay buffer (50 mM Tris-HCl, pH 7.4, 0.5 mM EDTA, 5 mM MgCl2, and 10 μM pargyline). Assay incubations were performed for 60 min at room temperature and were terminated by rapid filtration under vacuum pressure of the reaction mixture over Whatman GF/C glass fiber filters presoaked in 0.5% PEI using a Brandell cell harvestor. Filters were then washing several times with ice-cold wash buffer (50 mM Tris-HCl, pH 7.4). Plates were then dried at room temperature and counted in a Wallac microBeta scintillation counter.
Sequence of 5-hydroxytryptamine receptor 2A (P28223 whole entry): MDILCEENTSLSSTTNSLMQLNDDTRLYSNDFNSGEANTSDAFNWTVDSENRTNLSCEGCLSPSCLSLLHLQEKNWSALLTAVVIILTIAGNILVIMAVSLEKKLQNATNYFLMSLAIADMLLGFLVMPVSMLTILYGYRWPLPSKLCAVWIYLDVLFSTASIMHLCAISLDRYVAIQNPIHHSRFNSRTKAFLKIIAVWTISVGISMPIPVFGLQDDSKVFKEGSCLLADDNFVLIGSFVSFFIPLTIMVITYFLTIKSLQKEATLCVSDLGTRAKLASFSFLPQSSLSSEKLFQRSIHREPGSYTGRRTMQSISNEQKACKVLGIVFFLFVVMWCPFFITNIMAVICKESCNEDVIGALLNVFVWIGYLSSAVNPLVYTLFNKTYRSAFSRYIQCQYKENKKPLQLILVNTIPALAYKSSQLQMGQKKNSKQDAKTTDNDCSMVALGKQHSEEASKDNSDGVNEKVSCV

SMILES strings stand for the structures.

As for `Cn1nccc1-c1cc(NC(=O)Cc2ccc(F)cc2)ccc1OCCN1CCCCC1`, the IC50 came to 13.7 nM.

On to `CCC(C)OC(=O)Nc1ccc(OCCN2CCCC2)c(-c2c(Br)cnn2C)c1` (stereo not drawn), for which the IC50 amounted to 1.1 nM.

For `Cn1nccc1-c1cc(NC(=O)NCc2ccc(Cl)cc2)ccc1OCCN1CCCC1`, the IC50 is 10.2 nM.
